# Results as given in patent US8519188B2, “Compounds which can be used for the treatment of cancers” (Marc-Henry Pitty, priority 2008, dated 2013).
# Columns and labels:
# [1] = system: MCF-7/adr adriamycin-resistant breast cancer cell line; test: Cell proliferation (CellTiter 96 AQueous MTS/PMS), MCF-7/adr; format: cell-based; details: Homo sapiens, NCI/ADR-RES; MCF-7/adr; 72 hours of incubation; concentration that induces the death of 50% of the cells; read-out: CI50 for various cell lines (nM) MCF-7/adr
# Method: (§1) The effects of the compounds of the invention on the proliferation of cancer cells were studied on various human cancer cell lines of various tissue origins (MCF-7: breast cancer, MCF-7/adr adriamycin-resistant breast cancer, ARH-77: myeloma, ARH-77/Dox: doxorubicin (other name for adriamycin)-resistant myeloma, HL-60: acute promyelocytic leukaemia, HL-60/R10: doxorubicin-resistant acute promyelocytic leukaemia). The cancer cells used for this study were incubated at 37° C. in the presence of one of the compounds of the invention added to the culture medium at various concentrations.
# (§2) The cancer cell lines originate from the ATCC (American Type Culture Collection) in the case of MCF-7, ARH-77 and HL-60, from Pharmacell (Paris, France) for HL-60/R10, from Oncodesign (Dijon, France) for ARH-77/Dox and from the Pitié Salpetrière Hospital for MCF-7/adr. They were cultivated in a RPMI 1640 medium containing 2 mM L-glutamine and supplemented with 10% foetal calf serum. All the cell lines were maintained in culture at 37° C. in a moist atmosphere containing 5% CO2. Cell proliferation was evaluated using the “CellTiter 96® AQueous” reagent (Promega, Wis., USA) while adhering to the manufacturer's instructions. The cells were seeded in 96-well culture plates in a proportion of from 5,000 to 10,000 cells per well in 200 μl of culture medium. After 24 hours of preincubation at 37° C., the compounds of the invention dissolved in dimethyl sulphoxide (DMSO) were added individually to each of the wells in a proportion of 2 μl per well. After 72 hours of incubation at 37° C. in a moist atmosphere containing 5% CO2, 40 μL of a MTS/PMS ([3-(4,5-dimethylthiazol-2-yl)-5-(3-carboxymethoxyphenyl)-2-(4-sulphophenyl)-2H-tetrazolium phenazine methosulphate) solution were added to each well.
# [2] = system: MCF-7 breast cancer cell line; test: Cell proliferation (CellTiter 96 AQueous MTS/PMS), MCF-7; format: cell-based; details: Homo sapiens, MCF7; MCF-7; 72 hours of incubation; concentration that induces the death of 50% of the cells; read-out: CI50 for various cell lines (nM) MCF-7
# Method: as §1, §2
Compound,IC50 [1] [nM],IC50 [2] [nM]
"C#CC(=O)N(C(C(=O)NCc1ccccc1)c1cccs1)[C@@H](C)c1ccccc1 (stereo partly drawn) [Compound 8, Propynoic Acid (benzylcarbamoylthiophen-2-yl-methyl)-((S)-1-phenylethyl)amide]",30,–
"C#CC(=O)N(C(C(=O)NCc1ccccc1)c1cccs1)[C@H](C)c1ccccc1 (stereo partly drawn) [Compound 9, Propynoic Acid (benzylcarbamoylthiophen-2-yl-methyl)-((R)-1-phenylethyl)amide]",30,–
"C#CC(=O)N(CC(C)C)C(C(=O)NC1CCCCC1)c1cccs1 (centres unmarked) [Compound 12, Propynoic Acid (cyclohexylcarbamoylthiophen-2-yl-methyl)isobutylamide]",30,–
"C#CC(=O)N(CC(C)C)C(C(=O)NCc1ccccc1)c1cccs1 (centres unmarked) [Compound 16, Propynoic Acid (benzylcarbamoylthiophen-2-yl-methyl)isobutylamide]",1,–
"C#CC(=O)N(CC1CC1)C(C(=O)NCc1ccccc1)c1cccs1 (centres unmarked) [Compound 18, Propynoic Acid (benzylcarbamoylthiophen-2-yl-methyl)cyclopropylmethylamide]",30,–
"C#CC(=O)N(c1cccc(C(F)(F)F)c1)C(C(=O)NC1CCCCC1)c1ccc(C)s1 (centres unmarked) [Compound 19, Propynoic Acid [cyclohexylcarbamoyl-(5-methylthiophen-2-yl)-methyl]-(3-trifluoromethylphenyl)amide]",1.4,340
"C#CC(=O)N(c1cccc([N+](=O)[O-])c1)C(C(=O)NC1CCCCC1)c1cccs1 (centres unmarked) [Compound 27, Propynoic Acid (cyclohexylcarbamoylthiophen-2-yl-methyl)-(3-nitrophenyl)amide]",0.8,110
"C#CC(=O)N(c1ccc(-c2csnn2)cc1)C(C(=O)NC1CCCCC1)c1cccs1 (centres unmarked) [Compound 28, Propynoic Acid (cyclohexylcarbamoylthiophen-2-yl-methyl)-(4-[1,2,3]thiadiazol-4-yl-phenyl)amide]",2.2,70
"C#CC(=O)N(c1ccc(C(O)(C(F)(F)F)C(F)(F)F)cc1)C(C(=O)NC1CCCCC1)c1cccs1 (centres unmarked) [Compound 29, Propynoic Acid (cyclohexylcarbamoylthiophen-2-yl-methyl)-[4-(2,2,2-trifluoro-1-hydroxy-1-trifluoromethylethyl)phenyl]amide]",18,877
"C#CC(=O)N(c1ccc(N(CC)CC)cc1)C(C(=O)NC1CCCCC1)c1cccs1 (centres unmarked) [Compound 32, Propynoic Acid (cyclohexylcarbamoylthiophen-2-yl-methyl)-(4-diethylaminophenyl)amide]",2.9,1260
"C#CC(=O)N(c1ccccc1Cl)C(C(=O)NC1CCCCC1)c1cccs1 (centres unmarked) [Compound 33, Propynoic Acid (2-chlorophenyl)(cyclohexylcarbamoylthiophen-2-yl-methyl)amide]",2.7,736
"C#CC(=O)N(c1cccc(-c2ccnc(C)n2)c1)C(C(=O)NC1CCCCC1)c1cccs1 (centres unmarked) [Compound 38, Propynoic Acid (cyclohexylcarbamoylthiophen-2-yl-methyl)-[3-(2-methylpyrimidin-4-yl)-phenyl]amide]",1.9,272
"C#CC(=O)N(c1ccc(Cl)cc1)C(C(=O)NC1CCCCC1)c1cccs1 (centres unmarked) [Compound 41, Propynoic Acid (4-chlorophenyl)(cyclohexylcarbamoylthiophen-2-yl-methyl)amide]",3.2,158
"C#CC(=O)N(c1ccc(N2CCOCC2)cc1)C(C(=O)NC1CCCCC1)c1cccs1 (centres unmarked) [Compound 48, Propynoic Acid (cyclohexylcarbamoylthiophen-2-yl-methyl)-(4-morpholin-4-yl-phenyl)amide]",1,–
"C#CC(=O)N(c1ccc2[nH]ncc2c1)C(C(=O)NC1CCCCC1)c1cccs1 (centres unmarked) [Compound 49, Propynoic Acid (cyclohexylcarbamoylthiophen-2-yl-methyl)-(1H-indazol-5-yl)-amide]",1,220
"C#CC(=O)N(c1ccc(F)cc1F)C(C(=O)NC1CCCCC1)c1cccs1 (centres unmarked) [Compound 50, Propynoic Acid (cyclohexylcarbamoylthiophen-2-yl-methyl)-(2,4-difluorophenyl)amide]",2,282
"C#CC(=O)N(c1ccc(C(C)(C)C)cc1)C(C(=O)NC1CCCCC1)c1cccs1 (centres unmarked) [Compound 52, Propynoic Acid (4-tert-butylphenyl)(cyclohexylcarbamoylthiophen-2-yl-methyl)amide]",3.5,708

Compound,IC50 [1] [nM],IC50 [2] [nM]
"C#CC(=O)N(c1ccc(C#N)cc1)C(C(=O)NC1CCCCC1)c1cccs1 (centres unmarked) [Compound 53, Propynoic Acid (4-cyanophenyl)(cyclohexylcarbamoylthiophen-2-yl-methyl)amide]",2.8,372
"C#CC(=O)N(c1ccccc1C#N)C(C(=O)NC1CCCCC1)c1cccs1 (centres unmarked) [Compound 54, Propynoic Acid (2-cyanophenyl)(cyclohexylcarbamoylthiophen-2-yl-methyl)amide]",2.9,224
"C#CC(=O)N(c1ccc(Oc2ccccc2)cc1)C(C(=O)NC1CCCCC1)c1cccs1 (centres unmarked) [Compound 55, Propynoic Acid (cyclohexylcarbamoylthiophen-2-yl-methyl)-(4-phenoxyphenyl)amide]",2.4,694
"C#CC(=O)N(c1cccc(C#C)c1)C(C(=O)NC1CCCCC1)c1cccs1 (centres unmarked) [Compound 56, Propynoic Acid (cyclohexylcarbamoylthiophen-2-yl-methyl)-(3-ethynylphenyl)amide]",1.4,640
"C#CC(=O)N(c1ccc(C(C)C)cc1)C(C(=O)NC1CCCCC1)c1cccs1 (centres unmarked) [Compound 57, Propynoic Acid (cyclohexylcarbamoylthiophen-2-yl-methyl)-(4-isopropylphenyl)amide]",8.1,599
"C#CC(=O)N(c1cccc(-c2ccccc2)c1)C(C(=O)NC1CCCCC1)c1cccs1 (centres unmarked) [Compound 58, Propynoic acid biphenyl-3-yl-(cyclohexylcarbamoylthiophen-2-yl-methyl)amide]",2.4,580
"C#CC(=O)N(c1ccccc1C)C(C(=O)NC1CCCCC1)c1cccs1 (centres unmarked) [Compound 60, Propynoic Acid (cyclohexylcarbamoylthiophen-2-yl-methyl)-o-tolylamide]",3.5,357
"C#CC(=O)N(c1cccc(C(F)(F)F)c1)C(C(=O)NC1CCCCC1)c1ccc2c(c1)OCO2 (centres unmarked) [Compound 63, Propynoic Acid (benzo[1,3]dioxol-5-yl-cyclohexylcarbamoylmethyl)-(3-trifluoromethylphenyl)amide]",2,401
"C#CC(=O)N(c1cccc(C(F)(F)F)c1)C(C(=O)NC1CCCCC1)c1ccccc1 (centres unmarked) [Compound 66, Propynoic Acid (cyclohexylcarbamoyl phenylmethyl)-(3-trifluoromethylphenyl)amide]",1,–
"C#CC(=O)N(c1cccc(C(F)(F)F)c1)C(C(=O)NC1CCCCC1)c1ccccc1F (centres unmarked) [Compound 72, Propynoic Acid [cyclo hexylcarbamoyl-(2-fluorophenyl)methyl]-(3-trifluoromethylphenyl)amide]",3,619
"C#CC(=O)N(c1cccc(C(F)(F)F)c1)C(C(=O)NC1CCCCC1)c1ccc(F)cc1 (centres unmarked) [Compound 74, Propynoic Acid [cyclohexylcarbamoyl-(4-fluorophenyl)methyl]-(3-trifluoromethylphenyl)amide]",2.9,506
"C#CC(=O)N(c1cccc(C(F)(F)F)c1)C(C(=O)NC1CCCCC1)c1ccc(N(C)C)cc1 (centres unmarked) [Compound 76, Propynoic Acid [cyclohexylcarbamoyl-(4-dimethylaminophenyl)methyl]-(3-trifluoromethylphenyl)amide]",1.5,–
"C#CC(=O)N(c1cccc(C(F)(F)F)c1)C(C(=O)NC1CCCCC1)c1ccc(C#N)cc1 (centres unmarked) [Compound 81, Propynoic Acid [(4-cyanophenyl)cyclohexylcarbamoylmethyl]-(3-trifluoromethylphenyl)amide]",1.6,269
"C#CC(=O)N(c1cccc(C(F)(F)F)c1)C(C(=O)NC1CCCCC1)c1cccc2c1OCO2 (centres unmarked) [Compound 84, Propynoic Acid (benzo[1,3]dioxol-4-yl-cyclohexylcarbamoylmethyl)-(3-trifluoromethyl-phenyl)amide]",1.6,250
C#CC(=O)N(c1cccc2ccccc12)C(C(=O)NC1CCCCC1)c1ccccc1 (centres unmarked) [Compound 176],1.9,–
C#CC(=O)N(Cc1ccc2c(c1)OCO2)C(C(=O)NCc1ccccc1)c1ccccc1F (centres unmarked) [Compound 181],0.2,–
